From ChEMBL document CHEMBL3745645, “Synthesis, in vitro antitumor activity, dihydrofolate reductase inhibition, DNA intercalation and structure-activity relationship studies of 1,3,5-triazine analogues” (Bioorg Med Chem Lett, 2016)
Calls of active or inactive are those of the source. The calls are words filed in the database; no cut-off is given here.

How the values were obtained:
[1] = Cytotoxicity against human DU145 cells after 48 hrs by SRB assay; type: functional; conditions: DU-145, 48 h, read-out: LC50 (the source's name)
[2] = Cytotoxicity against human HOP92 cells at 10 uM after 48 hrs by SRB assay; type: functional; conditions: HOP-92, 48 h, read-out: GI
[3] = Cytotoxicity against human UO31 cells at 10 uM after 48 hrs by SRB assay; type: functional; conditions: UO-31, 48 h, read-out: GI
SK-MEL-28 = assay: Cytotoxicity against human SK-MEL-28 cells at 10 uM after 48 hrs by SRB assay; type: functional; conditions: SK-MEL-28, 48 h, read-out: GI
TK-10 = assay: (§1) Cytotoxicity against human TK10 cells at 10 uM after 48 hrs by SRB assay; type: functional
MCF7 = assay: Cytotoxicity against human MCF7 cells after 48 hrs by SRB assay; type: functional; conditions: MCF7, 48 h, pooled result: one value given for 6 cell lines, strains, targets or settings
BT-549 = assay: (§2) Cytotoxicity against human BT549 cells at 10 uM after 48 hrs by SRB assay; type: functional
[4] = Cytotoxicity against human LOXIMVI cells at 10 uM after 48 hrs by SRB assay; type: functional; conditions: LOX IMVI, read-out: GI
A549 [5] = assay: Cytotoxicity against human A549 cells after 48 hrs by SRB assay; type: functional; conditions: A549, 48 h, pooled result: one value given for 8 cell lines, strains, targets or settings
[6] = Cytotoxicity against human NCI-ADR-RES cells at 10 uM after 48 hrs by SRB assay; type: functional; conditions: read-out: GI
MDA-MB-435 = assay: Cytotoxicity against human MDA-MB-435 cells at 10 uM after 48 hrs by SRB assay; type: functional; conditions: MDA-MB-435, 48 h, read-out: GI
[7] = Cytotoxicity against human DU145 cells at 10 uM after 48 hrs by SRB assay; type: functional; conditions: DU-145, 48 h, read-out: GI
Dihydrofolate reductase = target: T1, Dihydrofolate reductase (Homo sapiens, UniProt P00374); assay: Inhibition of human recombinant DHFR expressed in Escherichia coli by spectrophotometric analysis
T1 sequence (P00374 whole entry): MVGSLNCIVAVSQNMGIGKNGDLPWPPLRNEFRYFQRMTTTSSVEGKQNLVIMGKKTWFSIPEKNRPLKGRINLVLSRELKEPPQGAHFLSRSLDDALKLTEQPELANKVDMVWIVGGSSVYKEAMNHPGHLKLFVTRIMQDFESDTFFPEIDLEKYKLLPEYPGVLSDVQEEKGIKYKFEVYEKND

HL-60(TB) = assay: Cytotoxicity against human HL-60(TB) cells at 10 uM after 48 hrs by SRB assay; type: functional
[8] = Cytotoxicity against human SKOV3 cells at 10 uM after 48 hrs by SRB assay; type: functional; conditions: SK-OV-3, 48 h, read-out: GI
[9] = (§3) Cytotoxicity against human HCC2998 cells at 10 uM after 48 hrs by SRB assay; type: functional; conditions: HCC 2998, 48 h, read-out: GI
A549 [10] = assay: Cytotoxicity against human A549 cells at 10 uM after 48 hrs by SRB assay; type: functional; conditions: A549, 48 h, read-out: GI
[11] = Cytotoxicity against human RPMI8226 cells at 10 uM after 48 hrs by SRB assay; type: functional; conditions: RPMI-8226, 48 h, read-out: GI
NCI-H460 = assay: Cytotoxicity against human NCI-H460 cells at 10 uM after 48 hrs by SRB assay; type: functional; conditions: NCI-H460, 48 h, read-out: GI
[12] = Cytotoxicity against human MOLT4 cells after 48 hrs by SRB assay; type: functional; conditions: MOLT-4, 48 h, read-out: LC50 (the source's name)
MDA-MB-231 = assay: Cytotoxicity against human MDA-MB-231 cells at 10 uM after 48 hrs by SRB assay; type: functional; conditions: MDA-MB-231, 48 h, read-out: GI
[13] = Cytotoxicity against human SF295 cells at 10 uM after 48 hrs by SRB assay; type: functional; conditions: SF-295, 48 h, read-out: GI
[14] = (§4) Cytotoxicity against human UACC257 cells at 10 uM after 48 hrs by SRB assay; type: functional; conditions: UACC-257, 48 h, read-out: GI
[15] = Cytotoxicity against human SNB75 cells at 10 uM after 48 hrs by SRB assay; type: functional; conditions: SNB-75, 48 h, read-out: GI
[16] = Cytotoxicity against human IGROV1 cells at 10 uM after 48 hrs by SRB assay; type: functional; conditions: IGROV-1, 48 h, read-out: GI
SK-MEL-2 = assay: Cytotoxicity against human SK-MEL-2 cells at 10 uM after 48 hrs by SRB assay; type: functional; conditions: SK-MEL-2, 48 h, read-out: GI
KM12 = assay: Cytotoxicity against human KM12 cells at 10 uM after 48 hrs by SRB assay; type: functional; conditions: KM12, 48 h, read-out: GI
M14 = assay: Cytotoxicity against human M14 cells at 10 uM after 48 hrs by SRB assay; type: functional; conditions: M14, 48 h, read-out: GI
HT-29 = assay: Cytotoxicity against human HT-29 cells at 10 uM after 48 hrs by SRB assay; type: functional; conditions: HT-29, 48 h, read-out: GI
[17] = Cytotoxicity against human HCT15 cells at 10 uM after 48 hrs by SRB assay; type: functional; conditions: HCT-15, 48 h, read-out: GI
786-0 = assay: Cytotoxicity against human 786-0 cells at 10 uM after 48 hrs by SRB assay; type: functional; conditions: 786-0, 48 h, read-out: GI
K562 = assay: Cytotoxicity against human K562 cells at 10 uM after 48 hrs by SRB assay; type: functional; conditions: K562, 48 h, read-out: GI
[18] = (§5) Cytotoxicity against human OVCAR4 cells at 10 uM after 48 hrs by SRB assay; type: functional; conditions: OVCAR-4, 48 h, read-out: GI
[19] = Cytotoxicity against human SNB19 cells at 10 uM after 48 hrs by SRB assay; type: functional; conditions: SNB-19, 48 h, read-out: GI
[20] = as §1; type: functional; conditions: TK-10, 48 h, read-out: GI
[21] = as §2; type: functional; conditions: BT-549, 48 h, read-out: GI
NCI-H23 = assay: Cytotoxicity against human NCI-H23 cells at 10 uM after 48 hrs by SRB assay; type: functional; conditions: NCI-H23, 48 h, read-out: GI
HCC 2998 = assay: as §3; type: functional
UACC-257 = assay: as §4; type: functional
[22] = Cytotoxicity against human PC3 cells at 10 uM after 48 hrs by SRB assay; type: functional; conditions: PC-3, 48 h, read-out: GI
[23] = Cytotoxicity against human UACC62 cells at 10 uM after 48 hrs by SRB assay; type: functional; conditions: UACC-62, 48 h, read-out: GI
OVCAR-4 = assay: as §5; type: functional

SMILES	CC50 [1] [µM]	inhibition of growth at 10 µM [2] [%]	inhibition of growth at 10 µM [3] [%]	inhibition of growth at 10 µM (SK-MEL-28) [%]	GI50 (MCF7) [µM]	LC50 (concentration killing 50% of cells) (MCF7) [µM]	TGI (MCF7) [µM]	inhibition of growth at 10 µM [4] [%]	GI50 (A549 [5]) [µM]	LC50 (A549 [5]) [µM]	TGI (A549 [5]) [µM]	inhibition of growth at 10 µM (MDA-MB-435) [%]	inhibition of growth at 10 µM [7] [%]	IC50 (Dihydrofolate reductase) [µM]	inhibition of growth at 10 µM [8] [%]	inhibition of growth at 10 µM (A549 [10]) [%]	inhibition of growth at 10 µM [11] [%]	inhibition of growth at 10 µM (NCI-H460) [%]	CC50 [12] [µM]	inhibition of growth at 10 µM (MDA-MB-231) [%]	other results
Cc1nc2cc(Nc3nc(Nc4ccc(F)cc4)nc(-c4ccc(Cl)cc4)n3)ccc2n1Cc1ccccc1	> 100	65	55.5	7.37	6.46	> 100	50.8	23.4	8.37	83.8	38.6	33.8	18.6	42.4	7.08	42.6	99.8	28.9	> 100	34	growth inhibition (GI) (TK-10): inactive; growth inhibition (GI) (BT-549): inactive; inhibition of growth at 10 µM [6]: 41%; growth inhibition (GI) (HL-60(TB)): Active; inhibition of growth at 10 µM [9]: 18.4%; inhibition of growth at 10 µM [13]: 9.63%; inhibition of growth at 10 µM [14]: 31.1%; inhibition of growth at 10 µM [15]: 34.8%; inhibition of growth at 10 µM [16]: 51.3%; inhibition of growth at 10 µM (SK-MEL-2): 16.4%; inhibition of growth at 10 µM (KM12): 62.8%; inhibition of growth at 10 µM (M14): 41.7%; inhibition of growth at 10 µM (HT-29): 44.2%; inhibition of growth at 10 µM [17]: 35.6%; inhibition of growth at 10 µM (786-0): 8.96%; inhibition of growth at 10 µM (K562): 66.3%; inhibition of growth at 10 µM [18]: 41.4%; inhibition of growth at 10 µM [19]: 16.6%
Cc1nc2ccc(Nc3nc(Cl)nc(Nc4ccc(F)cc4)n3)cc2n1Cc1ccccc1	52.5	21.2	62.9	8.45	4.21	75.8	11.9	64.8	6.23	69.6	20.3	11.2	5.78	0.31	2.61	23.8	87.5	20.1	> 100	25.9	inhibition of growth at 10 µM [20]: 7.64%; inhibition of growth at 10 µM [21]: 39.8%; inhibition of growth at 10 µM (NCI-H23): 11.8%; growth inhibition (GI) (HCC 2998): inactive; inhibition of growth at 10 µM [13]: 21.8%; growth inhibition (GI) (UACC-257): inactive; inhibition of growth at 10 µM [15]: 4.24%; inhibition of growth at 10 µM [16]: 33.3%; inhibition of growth at 10 µM [22]: 19.2%; inhibition of growth at 10 µM [23]: 48.6%; inhibition of growth at 10 µM (KM12): 27.2%; inhibition of growth at 10 µM (M14): 17.7%; inhibition of growth at 10 µM (HT-29): 15.8%; inhibition of growth at 10 µM [17]: 44.2%; inhibition of growth at 10 µM (786-0): 20.4%; inhibition of growth at 10 µM (K562): 63.1%; growth inhibition (GI) (OVCAR-4): inactive; inhibition of growth at 10 µM [19]: 12%
